Reference: patent US7795261B2, “Substituted 1-piperidin-4-yl-4-pyrrolidin-3-yl-piperazine derivatives and their use as neurokinin antagonists” (Janssen Pharmaceutica NV, priority 2002, dated 2010)

Legend:
NK1 = NK1 (Homo sapiens, UniProt P25103); assay: Signal transduction (ST), intracellular Ca++ (FLIPR), NK1 antagonistic activity; type: cell-based; conditions: read-out: pIC50 NK1 (converted)
Method: (§1) This test evaluates in vitro functional NK1 antagonistic activity. For the measurements of intracellular Ca^++ concentrations the cells were grown on 96-well (black wall/transparent bottom) plates from Costar for 2 days until they reached confluence. The cells were loaded with 2 μM Fluo3 in DMEM containing 0.1% BSA and 2.5 mM probenecid for 1 h at 37° C. They were washed 3× with a Krebs buffer (140 mM NaCl, 1 mM MgCl2×6H2O, 5 mM KCl, 10 mM glucose, 5 mM HEPES; 1.25 mM CaCl2; pH 7.4) containing 2.5 mM probenecid and 0.1% BSA (Ca^++-buffer). The cells were preincubated with a concentration range of antagonists for 20 min at RT and Ca^++-signals after addition of the agonists were measured in a Fluorescence Image Plate Reader (FLIPR from Molecular Devices, Crawley, England). The peak of the Ca^++-transient was considered as the relevant signal and the mean values of corresponding wells were analysed as described below.
The sigmoidal dose response curves were analysed by computerised curve-fitting, using the GraphPad Program. […] For antagonist responses the IC50-value was calculated using non-linear regression. […]

NK3 = biological target: T1, NK3 (Homo sapiens, UniProt P29371); assay: Signal transduction (ST), intracellular Ca++ (FLIPR), NK3; type: cell-based; conditions: read-out: pIC50 NK3 (converted)
T1 sequence (P29371 1-465): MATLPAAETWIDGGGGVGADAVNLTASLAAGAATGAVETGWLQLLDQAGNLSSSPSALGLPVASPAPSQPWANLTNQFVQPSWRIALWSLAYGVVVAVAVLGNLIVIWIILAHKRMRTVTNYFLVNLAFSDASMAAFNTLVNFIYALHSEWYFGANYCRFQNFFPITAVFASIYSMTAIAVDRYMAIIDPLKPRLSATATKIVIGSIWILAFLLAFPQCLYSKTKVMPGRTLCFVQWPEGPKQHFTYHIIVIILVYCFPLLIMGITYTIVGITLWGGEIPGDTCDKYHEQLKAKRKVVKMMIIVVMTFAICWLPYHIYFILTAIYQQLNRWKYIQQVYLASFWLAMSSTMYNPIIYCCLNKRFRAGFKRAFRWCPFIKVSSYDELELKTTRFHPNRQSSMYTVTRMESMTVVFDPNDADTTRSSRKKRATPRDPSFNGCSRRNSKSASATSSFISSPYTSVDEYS
Method: [The procedure below names another target; the source lists this target under the same test.] as §1
The sigmoidal dose response curves were analysed by computerised curve-fitting, using the GraphPad Program. […] For antagonist responses the IC50-value was calculated using non-linear regression.
The last columns indicates—without being limited therefore—for which the compounds might be most suitable. Of course, since for some neurokinin receptors no data was determined, it is obvious that these compounds might be attributed to another suitable use.

Sequence of NK1 (P25103 whole entry): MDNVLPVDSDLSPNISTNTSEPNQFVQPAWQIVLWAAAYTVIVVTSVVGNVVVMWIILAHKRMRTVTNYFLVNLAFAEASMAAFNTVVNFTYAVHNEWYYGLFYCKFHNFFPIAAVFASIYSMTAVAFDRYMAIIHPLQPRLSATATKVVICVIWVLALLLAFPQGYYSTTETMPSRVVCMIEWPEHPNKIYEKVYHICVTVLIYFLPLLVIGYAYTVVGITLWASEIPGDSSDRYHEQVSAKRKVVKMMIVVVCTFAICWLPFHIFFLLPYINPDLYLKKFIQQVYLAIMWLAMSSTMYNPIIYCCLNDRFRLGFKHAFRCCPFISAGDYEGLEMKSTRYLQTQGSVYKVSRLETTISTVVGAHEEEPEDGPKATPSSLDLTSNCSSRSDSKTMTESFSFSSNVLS

IC50 (NK1) [µM] | IC50 (NK3) [µM] | SMILES
0.02 | 5.01 | O=C1CC[C@H](C(=O)N2CCC(N3CCN([C@H]4CCN(C(=O)c5cc(C(F)(F)F)cc(C(F)(F)F)c5)[C@H](Cc5ccccc5)C4)CC3)C2)O1 (stereo partly drawn) [Compound 387]
0.0251 | 2 | O=C(C(=O)N1CCC(N2CCN([C@H]3CCN(C(=O)c4cc(C(F)(F)F)cc(C(F)(F)F)c4)[C@H](Cc4ccccc4)C3)CC2)C1)c1cccs1 (stereo partly drawn) [Compound 188]
0.01 | 1.58 | CC(C)C(=O)N1CCC(N2CCN([C@H]3CCN(C(=O)c4cc(C(F)(F)F)cc(C(F)(F)F)c4)[C@H](Cc4ccccc4)C3)CC2)C1 (stereo partly drawn) [Compound 199]
0.0316 | 2.51 | CC(=O)N1CCC(N2CCN([C@H]3CCN(C(=O)c4cc(C(F)(F)F)cc(C(F)(F)F)c4)[C@H](Cc4ccccc4)C3)CC2)C1 (stereo partly drawn) [Compound 198]
0.0501 | 2.51 | O=C(c1ccc(Cl)cc1Cl)N1CCC(N2CCN([C@H]3CCN(C(=O)c4cc(C(F)(F)F)cc(C(F)(F)F)c4)[C@H](Cc4ccccc4)C3)CC2)C1 (stereo partly drawn) [Compound 22]
0.0316 | 2 | COCCC(=O)N1CC[C@H](N2CCN([C@H]3CCN(C(=O)c4cc(C(F)(F)F)cc(C(F)(F)F)c4)[C@H](Cc4ccccc4)C3)CC2)C1 [Compound 413]
0.0398 | 3.98 | Cc1cc(C(=O)N2CCC(N3CCN([C@H]4CCN(C(=O)c5cc(C(F)(F)F)cc(C(F)(F)F)c5)[C@H](Cc5ccccc5)C4)CC3)C2)no1 (stereo partly drawn) [Compound 47]
0.0158 | 0.794 | CC(C)(C)OCC(=O)N1CCC(N2CCN([C@H]3CCN(C(=O)c4cc(C(F)(F)F)cc(C(F)(F)F)c4)[C@H](Cc4ccccc4)C3)CC2)C1 (stereo partly drawn) [Compound 388]

The next lines start with the molecule.

SMILES | IC50 (NK1) [µM] | IC50 (NK3) [µM]
O=C(C1CC1)N1CCC(N2CCN(C3CCN(C(=O)c4cc(C(F)(F)F)cc(C(F)(F)F)c4)C(Cc4ccccc4)C3)CC2)C1 (single isomer, unassigned) [Compound 137] | 0.158 | 6.31
CC(C)(C)OC(=O)N1CCC(N2CCN(C3CCN(C(=O)c4cc(C(F)(F)F)cc(C(F)(F)F)c4)C(Cc4ccc(Cl)c(Cl)c4)C3)CC2)C1 (single isomer, unassigned) [Compound 165] | 0.0501 | 0.794
CN(C)CC(=O)N1CCC(N2CCN([C@H]3CCN(C(=O)c4cc(C(F)(F)F)cc(C(F)(F)F)c4)[C@H](Cc4ccccc4)C3)CC2)C1 (stereo partly drawn) [Compound 202] | 0.0398 | 6.31
COc1ccc2[nH]c(C(=O)N3CCC(N4CCN([C@H]5CCN(C(=O)c6cc(C(F)(F)F)cc(C(F)(F)F)c6)[C@H](Cc6ccccc6)C5)CC4)C3)cc2c1 (stereo partly drawn) [Compound 55] | 0.316 | 7.94
CC1(C)OC(=O)[C@@H](CC(=O)N2CCC(N3CCN([C@H]4CCN(C(=O)c5cc(C(F)(F)F)cc(C(F)(F)F)c5)[C@H](Cc5ccccc5)C4)CC3)C2)O1 (stereo partly drawn) [Compound 392] | 0.251 | 7.94
O=C(c1cc(C(F)(F)F)cc(C(F)(F)F)c1)N1CCC(N2CCN(C3CCN(Cc4ccccc4)C3)CC2)CC1Cc1ccc(F)c(F)c1 (single isomer, unassigned) [Compound 222] | 0.0501 | 6.31
O=C(Cn1cnc2ccccc21)N1CCC(N2CCN([C@H]3CCN(C(=O)c4cc(C(F)(F)F)cc(C(F)(F)F)c4)[C@H](Cc4ccccc4)C3)CC2)C1 (stereo partly drawn) [Compound 208] | 0.0158 | 2.51
O=C(c1cccnc1Cl)N1CCC(N2CCN([C@H]3CCN(C(=O)c4cc(C(F)(F)F)cc(C(F)(F)F)c4)[C@H](Cc4ccccc4)C3)CC2)C1 (stereo partly drawn) [Compound 168] | 0.00794 | 0.501
O=C(C1CC1)N1CCC(N2CCN(C3CCN(C(=O)c4cc(C(F)(F)F)cc(C(F)(F)F)c4)C(Cc4ccc(F)cc4)C3)CC2)C1 (stereo not drawn) [Compound 277] | 0.01 | 2.51
O=C(C1CCCO1)N1CCC(N2CCN([C@H]3CCN(C(=O)c4cc(C(F)(F)F)cc(C(F)(F)F)c4)[C@H](Cc4ccccc4)C3)CC2)C1 (stereo partly drawn) [Compound 97] | 0.01 | 2.51
